One experiment has as its target FGFR2 (Homo sapiens (Human), UniProt P21802). Briefly: FGFR Enzymatic Assay (FGFR2).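 Note: FRET read-out of peptide phosphorylation by the purified kinase, with enzyme-free blank and uninhibited enzyme as controls, potency from a variable-slope sigmoidal dose-response fit.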 Type of experiment: biochemical.
Another experiment addresses FGFR3 enzyme (Millipore) (Homo sapiens (Human), UniProt P22607). Conditions: read-out: FGFR3 IC50, ATP 140 μM.
The target in another experiment is FGFR1 (Homo sapiens (Human), UniProt P11362). The experiment is described as follows: FGFR Enzymatic Assay (FGFR1). In kind it is biochemical. As to conditions: enzyme 0.02 nM, ATP 210 μM.
Setting [1] is: enzyme 0.01 nM, ATP 100 μM, read-out: FGFR2 IC50.

Each structure is given as a SMILES string. Like-named read-outs stand apart in the source and are kept apart here.

As usually defined, the IC50 is the concentration that inhibits the measured activity by half.

Sequence of FGFR3 enzyme (Millipore) (P22607 23-806): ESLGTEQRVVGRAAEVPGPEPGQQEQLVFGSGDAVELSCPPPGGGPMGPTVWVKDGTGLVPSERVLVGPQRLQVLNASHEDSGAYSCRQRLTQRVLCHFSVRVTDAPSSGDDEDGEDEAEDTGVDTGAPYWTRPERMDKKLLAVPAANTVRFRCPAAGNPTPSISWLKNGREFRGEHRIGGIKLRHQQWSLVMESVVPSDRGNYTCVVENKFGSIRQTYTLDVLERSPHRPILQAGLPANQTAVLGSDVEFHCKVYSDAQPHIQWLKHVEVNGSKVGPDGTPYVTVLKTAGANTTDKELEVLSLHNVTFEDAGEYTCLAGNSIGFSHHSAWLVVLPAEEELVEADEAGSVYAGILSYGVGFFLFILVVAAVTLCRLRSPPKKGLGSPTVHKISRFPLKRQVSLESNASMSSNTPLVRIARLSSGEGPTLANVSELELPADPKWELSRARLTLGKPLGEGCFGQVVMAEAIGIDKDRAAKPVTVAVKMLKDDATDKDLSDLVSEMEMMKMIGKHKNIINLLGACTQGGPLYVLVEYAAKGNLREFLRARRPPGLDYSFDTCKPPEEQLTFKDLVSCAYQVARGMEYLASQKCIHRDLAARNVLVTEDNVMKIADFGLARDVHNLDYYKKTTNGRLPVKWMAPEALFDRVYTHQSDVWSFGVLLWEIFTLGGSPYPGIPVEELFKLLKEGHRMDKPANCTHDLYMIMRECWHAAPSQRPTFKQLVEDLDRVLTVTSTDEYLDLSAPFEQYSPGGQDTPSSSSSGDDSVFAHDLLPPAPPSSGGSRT
Sequence of FGFR2 (P21802 22-821): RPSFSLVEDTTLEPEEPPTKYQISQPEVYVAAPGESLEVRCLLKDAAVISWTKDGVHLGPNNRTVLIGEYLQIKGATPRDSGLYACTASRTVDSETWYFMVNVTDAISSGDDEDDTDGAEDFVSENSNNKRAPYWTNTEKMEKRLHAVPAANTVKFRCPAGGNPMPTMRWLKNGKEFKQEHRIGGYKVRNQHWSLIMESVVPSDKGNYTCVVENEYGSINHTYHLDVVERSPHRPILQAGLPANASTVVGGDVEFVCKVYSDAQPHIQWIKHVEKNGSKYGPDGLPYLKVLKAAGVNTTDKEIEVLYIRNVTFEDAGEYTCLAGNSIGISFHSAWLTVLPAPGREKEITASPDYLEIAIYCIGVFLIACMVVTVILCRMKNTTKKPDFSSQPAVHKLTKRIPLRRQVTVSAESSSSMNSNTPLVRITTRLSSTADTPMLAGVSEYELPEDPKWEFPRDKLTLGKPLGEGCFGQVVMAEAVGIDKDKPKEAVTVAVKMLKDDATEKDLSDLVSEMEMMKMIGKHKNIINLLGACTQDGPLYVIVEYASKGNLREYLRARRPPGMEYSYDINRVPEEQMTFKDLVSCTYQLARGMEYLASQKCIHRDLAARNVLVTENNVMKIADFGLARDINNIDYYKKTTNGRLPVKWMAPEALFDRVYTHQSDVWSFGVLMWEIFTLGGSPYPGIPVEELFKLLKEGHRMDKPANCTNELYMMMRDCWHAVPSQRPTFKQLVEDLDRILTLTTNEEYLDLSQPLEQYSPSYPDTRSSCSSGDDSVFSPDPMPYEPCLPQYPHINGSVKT
Sequence of FGFR1 (P11362 22-822): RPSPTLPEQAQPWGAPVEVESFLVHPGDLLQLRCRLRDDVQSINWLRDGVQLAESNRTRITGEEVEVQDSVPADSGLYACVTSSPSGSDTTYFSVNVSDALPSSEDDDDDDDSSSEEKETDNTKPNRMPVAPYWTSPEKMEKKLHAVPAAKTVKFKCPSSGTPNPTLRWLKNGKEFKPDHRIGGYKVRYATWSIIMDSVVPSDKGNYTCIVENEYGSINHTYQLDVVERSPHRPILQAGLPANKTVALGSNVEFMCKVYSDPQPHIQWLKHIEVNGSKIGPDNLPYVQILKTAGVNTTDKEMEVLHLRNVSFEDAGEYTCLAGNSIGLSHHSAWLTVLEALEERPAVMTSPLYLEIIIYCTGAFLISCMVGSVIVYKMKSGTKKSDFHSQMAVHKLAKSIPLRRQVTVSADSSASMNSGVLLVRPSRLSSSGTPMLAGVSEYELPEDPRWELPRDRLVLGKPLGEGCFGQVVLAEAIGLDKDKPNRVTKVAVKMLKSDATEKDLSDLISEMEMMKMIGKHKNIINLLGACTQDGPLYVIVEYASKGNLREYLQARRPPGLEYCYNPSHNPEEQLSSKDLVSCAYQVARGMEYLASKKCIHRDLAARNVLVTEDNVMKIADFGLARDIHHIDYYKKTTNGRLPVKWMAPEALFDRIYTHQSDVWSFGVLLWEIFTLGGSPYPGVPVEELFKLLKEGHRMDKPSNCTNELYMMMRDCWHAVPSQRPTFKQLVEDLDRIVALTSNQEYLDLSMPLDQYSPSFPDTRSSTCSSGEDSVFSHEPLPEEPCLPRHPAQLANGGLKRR
Protocol for FGFR1: (§1) The inhibitor potency of compounds was measured in an enzyme assay that measures peptide phosphorylation using FRET measurements to detect product formation. Inhibitors were serially diluted in DMSO and a volume of 0.5 μL was transferred to the wells of a 384-well plate. For FGFR3, a 10 μL volume of FGFR3 enzyme (Millipore) diluted in assay buffer (50 mM HEPES, 10 mM MgCl2, 1 mM EGTA, 0.01% Tween-20, 5 mM DTT, pH 7.5) was added to the plate and pre-incubated for 5-10 minutes. Appropriate controls (enzyme blank and enzyme with no inhibitor) were included on the plate. […] The plate was incubated at 25° C. for 1 hr. […] The plate was allowed to equilibrate for ˜1 hr before scanning the wells on a PheraStar plate reader.
(§2) GraphPad prism3 was used to analyze the data. The IC50 values were derived by fitting the data to the equation for a sigmoidal dose-response with a variable slope. Y=Bottom+(Top−Bottom)/(1+10^((Log IC50−X)*HillSlope)) where X is the logarithm of concentration and Y is the response.
Protocol for FGFR2: as §1, §2

`COc1cc(CCc2cnc3[nH]c(-c4ccc(N5CCN(C)CC5)cc4)cc3n2)cc(OC)c1` [Example 1, 2-[2-(3,5-dimethoxyphenyl)ethyl]-6-[4-(4-methylpiperazin-1-yl)phenyl]-5H-pyrrolo[2,3-b]pyrazine]: the IC50 on FGFR2 (setting [1]), on FGFR3 enzyme (Millipore) (class symbols) and at FGFR1 was below 100 nM in each case.

On to `CCN1CCN(c2ccc(-c3cc4nc(CCc5cc(OC)cc(OC)c5)cnc4[nH]3)cc2)CC1` [Example 2, 2-[2-(3,5-dimethoxyphenyl)ethyl]-6-[4-(4-ethylpiperazin-1-yl)phenyl]-5H-pyrrolo[2,3-b]pyrazine], for which the IC50 at FGFR2 (setting [1]), at FGFR3 enzyme (Millipore) (class symbols) and against FGFR1 was below 100 nM throughout.

On to `COc1cc(CCc2cnc3[nH]c(-c4ccccc4)cc3n2)cc(OC)c1` [Example 3, 2-(3,5-dimethoxyphenethyl)-6-phenyl-5H-pyrrolo[2,3-b]pyrazine], for which the IC50 at FGFR2 (setting [1]), on FGFR3 enzyme (Millipore) (class symbols) and at FGFR1 was below 100 nM in each case.

As for `COc1ccc(-c2cc3nc(CCc4cc(OC)cc(OC)c4)cnc3[nH]2)cc1` [Example 5, 2-[2-(3,5-dimethoxyphenyl)ethyl]-6-(4-methoxyphenyl)-5H-pyrrolo[2,3-b]pyrazine], the IC50 at FGFR2 (setting [1]), at FGFR3 enzyme (Millipore) (class symbols) and on FGFR1 was below 100 nM throughout.

On to `COc1cc(CCc2cnc3[nH]c(-c4ccc(CN5CCCCC5)cc4)cc3n2)cc(OC)c1` [Example 11, 2-[2-(3,5-dimethoxyphenyl)ethyl]-6-[4-(piperidin-1-ylmethyl)phenyl]-5H-pyrrolo[2,3-b]pyrazine], for which the half-inhibitory concentration (IC50) on FGFR2 (setting [1]), on FGFR3 enzyme (Millipore) (class symbols) and at FGFR1 was below 100 nM in each case.

In the case of `COCc1ccc(-c2cc3nc(CCc4cc(OC)cc(OC)c4)cnc3[nH]2)cc1` [Example 12, 2-[2-(3,5-dimethoxyphenyl)ethyl]-6-[4-(methoxymethyl)phenyl]-5H-pyrrolo[2,3-b]pyrazine], the IC50 at FGFR2 (setting [1]), on FGFR3 enzyme (Millipore) (class symbols) and against FGFR1 was below 100 nM in each case.

Regarding `COc1cc(CCc2cnc3[nH]c(-c4ccc(CO)cc4)cc3n2)cc(OC)c1` [Example 13, (4-{2-[2-(3,5-dimethoxyphenyl)ethyl]-5H-pyrrolo[2,3-b]pyrazin-6-yl}phenyl)methanol], the IC50 on FGFR2 (setting [1]), on FGFR3 enzyme (Millipore) (class symbols) and against FGFR1 was below 100 nM in each case.

With `COc1cc(CCc2cnc3[nH]c(-c4ccc(C(=O)O)cc4)cc3n2)cc(OC)c1` [Example 15, 4-{2-[2-(3,5-dimethoxyphenyl)ethyl]-5H-pyrrolo[2,3-b]pyrazin-6-yl}benzoic acid], the IC50 at FGFR2 (setting [1]), on FGFR3 enzyme (Millipore) (class symbols) and at FGFR1 was below 100 nM in each case.

Regarding `COc1cc(CCc2cnc3[nH]c(-c4cnc(N(C)C)nc4)cc3n2)cc(OC)c1` [Example 20, 5-{2-[2-(3,5-dimethoxyphenyl)ethyl]-5H-pyrrolo[2,3-b]pyrazin-6-yl}-N,N-dimethylpyrimidin-2-amine], the IC50 was 100 to 500 nM on FGFR2, above 1000 nM at FGFR3 enzyme (Millipore) (numeric bounds) and below 100 nM at FGFR1.

With `COc1cc(CCc2cnc3[nH]c(-c4ccc5c(c4)OCO5)cc3n2)cc(OC)c1` [Example 21, 6-(1,3-benzodioxol-5-yl)-2-[2-(3,5-dimethoxyphenyl)ethyl]-5H-pyrrolo[2,3-b]pyrazine], the IC50 on FGFR3 enzyme (Millipore) (numeric bounds) was above 2000 nM.

Turning to `COc1cc(CCc2cnc3[nH]c(-c4ccc(C5CCN(C)CC5)cc4)cc3n2)cc(OC)c1` [Example 22, 2-[2-(3,5-dimethoxyphenyl)ethyl]-6-[4-(1-methylpiperidin-4-yl)phenyl]-5H-pyrrolo[2,3-b]pyrazine], the half-inhibitory concentration (IC50) on FGFR2 (setting [1]), on FGFR3 enzyme (Millipore) (class symbols) and against FGFR1 was below 100 nM each time.

With `COc1cc(CCc2cnc3[nH]c(C4CCN(C)CC4)cc3n2)cc(OC)c1` [Example 24, 2-[2-(3,5-dimethoxyphenyl)ethyl]-6-(1-methylpiperidin-4-yl)-5H-pyrrolo[2,3-b]pyrazine], at FGFR3 enzyme (Millipore) (numeric bounds), the IC50 was above 2000 nM.

Turning to `CNC(=O)c1cc2nc(CCc3cc(OC)cc(OC)c3)cnc2[nH]1` [Example 25, 2-[2-(3,5-dimethoxyphenyl)ethyl]-N-methyl-5H-pyrrolo[2,3-b]pyrazine-6-carboxamide], on FGFR3 enzyme (Millipore) (numeric bounds), the IC50 was above 2000 nM.

As to `COc1cc(CCc2cnc3[nH]c(C(=O)N(C)C)cc3n2)cc(OC)c1` [Example 26, 2-[2-(3,5-dimethoxyphenyl)ethyl]-N,N-dimethyl-5H-pyrrolo[2,3-b]pyrazine-6-carboxamide], the IC50 at FGFR2 (setting [1]) is 500 to 2700 nM; at FGFR3 enzyme (Millipore) (numeric bounds) it was above 2000 nM.

For the molecule `CCN(CC)CC#Cc1cc2nc(CCc3cc(OC)cc(OC)c3)cnc2[nH]1` [Example 27, 3-{2-[2-(3,5-dimethoxyphenyl)ethyl]-5H-pyrrolo[2,3-b]pyrazin-6-yl}-N,N-diethylprop-2-yn-1-amine], the IC50 at FGFR2 was 100 to 500 nM; at FGFR3 enzyme (Millipore) (numeric bounds), above 2000 nM; against FGFR1, below 100 nM.

As for `CCN(CC)CCCc1cc2nc(CCc3cc(OC)cc(OC)c3)cnc2[nH]1` [Example 28, 3-{2-[2-(3,5-dimethoxyphenyl)ethyl]-5H-pyrrolo[2,3-b]pyrazin-6-yl}-N,N-diethylpropan-1-amine], the IC50 on FGFR3 enzyme (Millipore) (numeric bounds) was above 2000 nM.

As for `COc1cc(CCc2cnc3[nH]c(-c4cnn(CCN5CCOCC5)c4)cc3n2)cc(OC)c1` [Example 31, 2-[2-(3,5-dimethoxyphenyl)ethyl]-6-[1-(2-morpholin-4-ylethyl)-1H-pyrazol-4-yl]-5H-pyrrolo[2,3-b]pyrazine], the IC50 on FGFR2 (setting [1]), at FGFR3 enzyme (Millipore) (class symbols) and against FGFR1 was below 100 nM each time.

Consider `COc1cc(CCc2cnc3[nH]c(-c4cnn(C5CCOCC5)c4)cc3n2)cc(OC)c1` [Example 32, 2-[2-(3,5-dimethoxyphenyl)ethyl]-6-[1-(tetrahydro-2H-pyran-4-yl)-1H-pyrazol-4-yl]-5H-pyrrolo[2,3-b]pyrazine], for which the IC50 on FGFR2 (setting [1]), at FGFR3 enzyme (Millipore) (class symbols) and against FGFR1 was below 100 nM each time.

Take `COc1cc(CCc2cnc3[nH]c(-c4cnn(CC(C)(C)O)c4)cc3n2)cc(OC)c1` [Example 33, 1-(4-{2-[2-(3,5-dimethoxyphenyl)ethyl]-5H-pyrrolo[2,3-b]pyrazin-6-yl}-1H-pyrazol-1-yl)-2-methylpropan-2-ol]: the IC50 on FGFR2 (setting [1]), at FGFR3 enzyme (Millipore) (class symbols) and on FGFR1 was below 100 nM in each case.

On to `COc1cc(CCc2cnc3[nH]c(-c4cnn(CCN(C)C)c4)cc3n2)cc(OC)c1` [Example 34, 2-(4-{2-[2-(3,5-dimethoxyphenyl)ethyl]-5H-pyrrolo[2,3-b]pyrazin-6-yl}-1H-pyrazol-1-yl)-N,N-dimethylethanamine], for which the IC50 on FGFR2 (setting [1]), on FGFR3 enzyme (Millipore) (class symbols) and against FGFR1 was below 100 nM each time.

For the molecule `COc1cc(CCc2cnc3[nH]c(-c4cnn(C(CC#N)C5CCCC5)c4)cc3n2)cc(OC)c1` (stereo not shown) [Example 35, 3-cyclopentyl-3-(4-{2-[2-(3,5-dimethoxyphenyl)ethyl]-5H-pyrrolo[2,3-b]pyrazin-6-yl}-1H-pyrazol-1-yl)propanenitrile], the IC50 at FGFR2 (setting [1]), on FGFR3 enzyme (Millipore) (class symbols) and against FGFR1 was below 100 nM throughout.

For `COc1cc(CCc2cnc3[nH]c(-c4cnn(C(C)CC#N)c4)cc3n2)cc(OC)c1` (stereo not shown) [Example 36, 3-(4-(2-(3,5-dimethoxyphenethyl)-5H-pyrrolo[2,3-b]pyrazin-6-yl)-1H-pyrazol-1-l)butanenitrile], the IC50 on FGFR2 (setting [1]), at FGFR3 enzyme (Millipore) (class symbols) and against FGFR1 was below 100 nM throughout.

In the case of `COc1cc(CCc2cnc3[nH]c(-c4cnn(C[C@H](C)O)c4)cc3n2)cc(OC)c1` [Example 39, (2S)-1-(4-{2-[2-(3,5-dimethoxyphenyl)ethyl]-5H-pyrrolo[2,3-b]pyrazin-6-yl}-1H-pyrazol-1-yl)propan-2-ol], the IC50 at FGFR2 (setting [1]), at FGFR3 enzyme (Millipore) (class symbols) and at FGFR1 was below 100 nM each time.

In the case of `COc1cc(CCc2cnc3[nH]c(-c4cnn(CCN5CCC(O)CC5)c4)cc3n2)cc(OC)c1` [Example 40, 1-[2-(4-{2-[2-(3,5-dimethoxyphenyl)ethyl]-5H-pyrrolo[2,3-b]pyrazin-6-yl}-1H-pyrazol-1-yl)ethyl]piperidin-4-ol], the IC50 on FGFR2 (setting [1]), on FGFR3 enzyme (Millipore) (class symbols) and against FGFR1 was below 100 nM throughout.

On to `COc1cc(CCc2cnc3[nH]c(-c4cnn(CCN5CCCCC5)c4)cc3n2)cc(OC)c1` [Example 41, 2-[2-(3,5-dimethoxyphenyl)ethyl]-6-[1-(2-piperidin-1-ylethyl)-1H-pyrazol-4-yl]-5H-pyrrolo[2,3-b]pyrazine], for which the IC50 on FGFR2 (setting [1]), at FGFR3 enzyme (Millipore) (class symbols) and at FGFR1 was below 100 nM throughout.

Turning to `COc1cc(CCc2cnc3[nH]c(-c4cnn(CC(=O)N5CCN(C)CC5)c4)cc3n2)cc(OC)c1` [Example 44, 2-(4-(2-(3,5-dimethoxyphenethyl)-5H-pyrrolo[2,3-b]pyrazin-6-yl)-1H-pyrazol-1-yl)-1-(4-methylpiperazin-1-yl)ethanone], the IC50 on FGFR2 (setting [1]), at FGFR3 enzyme (Millipore) (class symbols) and against FGFR1 was below 100 nM throughout.

Regarding `COc1cc(CCc2cnc3[nH]c(-c4ccc(F)c(C#N)c4)cc3n2)cc(OC)c1` [Example 65, 5-(2-(3,5-Dimethoxyphenethyl)-5H-pyrrolo[2,3-b]pyrazin-6-yl)-2-fluorobenzonitrile], the IC50 at FGFR2 (setting [1]) and against FGFR1 was below 100 nM each time.

In the case of `COc1cc(CCc2cnc3[nH]c(-c4ccc(N5CCN(C)CC5)c(C#N)c4)cc3n2)cc(OC)c1` [Example 72, 5-(2-(3,5-Dimethoxyphenethyl)-5H-pyrrolo[2,3-b]pyrazin-6-yl)-2-(4-methylpiperazin-1-yl)benzonitrile], the IC50 at FGFR2 (setting [1]) and at FGFR1 was below 100 nM in each case.

Values taken from US9745311B2, “Substituted pyrrolo[2,3-b]pyrazines as FGFR inhibitors” (Incyte Corporation, priority 2012, dated 2017).
